Laboratory results reported in PubChem BioAssay AID192 (DTP/NCI, 2004).
Inconclusive results and toxic doses are left out. Rule for the calls: active = survival T/C of 150% or more; inactive = T/C below 125% in these data. Square brackets hold non-standard residues; d marks the D form. Peptide text beside a SMILES is read from it. ξ: configuration not given here. ξF = NC(Cc1ccccc1)C(=O)O

Test system: BDF1 mice, B16 melanoma ip, median survival T/C
Assay: NCI In Vivo Anticancer Drug Screen. Data for tumor model B16 Melanoma (intraperitoneal) in B6D2F1 (BDF1) mice
Details: endpoint: median survival time, higher = longer survival
Method in brief: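 Compounds were tested in mice carrying transplantable tumors. Survival or tumor size was recorded, and each value is the treated-group measurement (T) divided by that of the vehicle-treated control group (C).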

[1] = dose: 25.0 mg/kg/injection, schedule: Q01DX009 (ip), vehicle: Klucel (hydroxypropylcellulose) (HPC)
[2] = dose: 50.0 mg/kg/injection, schedule: Q01DX009 (ip), vehicle: Klucel (hydroxypropylcellulose) (HPC)
[3] = dose: 100.0 mg/kg/injection, schedule: Q01DX009 (ip), vehicle: Klucel (hydroxypropylcellulose) (HPC)
[4] = dose: 200.0 mg/kg/injection, schedule: Q01DX009 (ip), vehicle: Klucel (hydroxypropylcellulose) (HPC)
[5] = dose: 400.0 mg/kg/injection, schedule: Q01DX009 (ip), vehicle: Klucel (hydroxypropylcellulose) (HPC)
[6] = dose: 12.5 mg/kg/injection, schedule: Q01DX009 (ip), vehicle: Klucel (hydroxypropylcellulose) (HPC)
[7] = dose: 100.0 mg/kg/injection, schedule: Q01DX009 (ip), vehicle: saline with Tween-80
[8] = dose: 6.25 mg/kg/injection, schedule: Q01DX009 (ip), vehicle: water
[9] = dose: 12.5 mg/kg/injection, schedule: Q01DX009 (ip), vehicle: water
[10] = dose: 200.0 mg/kg/injection, schedule: Q01DX009 (ip), vehicle: saline
[11] = dose: 400.0 mg/kg/injection, schedule: Q01DX009 (ip), vehicle: saline
[12] = dose: 100.0 mg/kg/injection, schedule: Q01DX009 (ip), vehicle: saline
[13] = dose: 25.0 mg/kg/injection, schedule: Q01DX009 (ip), vehicle: saline with Tween-80

Measured: T/C

CCC(=O)O[C@H]1CC[C@H]2[C@@H]3CCC4=CC(=O)CC[C@]4(C)[C@H]3CC[C@]12C
inactive: [1] 96 % of control | dose: 40.0 mg/kg/injection, schedule: Q02DX009 (ip), vehicle: Klucel (hydroxypropylcellulose) (HPC) 100 % of control | [2] 90 % of control | dose: 80.0 mg/kg/injection, schedule: Q02DX009 (ip), vehicle: Klucel (hydroxypropylcellulose) (HPC) 105 % of control | [3] 95 % of control | [4] 91 % of control | dose: 320.0 mg/kg/injection, schedule: Q02DX009 (ip), vehicle: Klucel (hydroxypropylcellulose) (HPC) 105 % of control | [5] 94 % of control

CCOC(=O)Nc1ccc(OC)cc1
inactive: dose: 100.0 mg/kg/injection, schedule: Q04DX003 (ip), vehicle: Klucel (hydroxypropylcellulose) (HPC) 95 % of control | dose: 200.0 mg/kg/injection, schedule: Q04DX003 (ip), vehicle: Klucel (hydroxypropylcellulose) (HPC) 100 % of control | dose: 400.0 mg/kg/injection, schedule: Q04DX003 (ip), vehicle: Klucel (hydroxypropylcellulose) (HPC) 97 % of control

O=C1C=CC(=O)N1c1ccc2c(c1)oc(=O)c1ccccc12
inactive: [2] 87 % of control

Nc1ncnc2nc[nH]c12
inactive: dose: 32.0 mg/kg/injection, schedule: Q01DX009 (ip), vehicle: Klucel (hydroxypropylcellulose) (HPC) 97 % of control | dose: 64.0 mg/kg/injection, schedule: Q01DX009 (ip), vehicle: Klucel (hydroxypropylcellulose) (HPC) 98 % of control | dose: 64.0 mg/kg/injection, schedule: Q01DX009 (ip), vehicle: saline with Tween-80 98 % of control | dose: 128.0 mg/kg/injection, schedule: Q01DX009 (ip), vehicle: Klucel (hydroxypropylcellulose) (HPC) 89 % of control

COc1ccc2ccccc2c1C1NC(=O)c2ccccc2N1 (stereo not drawn)
inactive: [2] 106 % of control | [3] 108 % of control | [4] 109 % of control | [5] 115 % of control

O=[n+]1ccn2cc3ccccc3cc2c1
inactive: dose: 3.75 mg/kg/injection, schedule: Q01DX009 (ip), vehicle: saline 102 % of control | dose: 7.5 mg/kg/injection, schedule: Q01DX009 (ip), vehicle: saline 105 % of control

c1cc(OCC2CO2)ccc1OCC1CO1 (stereo not drawn)
inactive: [6] 100 % of control | [1] 105 % of control | [2] 110 % of control | [3] 120 % of control

CCCCCc1cc(O)c2c(c1)OC(C)(C)c1ccc(C)cc1-2
inactive: dose: 64.0 mg/kg/injection, schedule: Q01DX009 (ip), vehicle: saline 115 % of control | dose: 128.0 mg/kg/injection, schedule: Q01DX009 (ip), vehicle: saline 110 % of control | dose: 256.0 mg/kg/injection, schedule: Q01DX009 (ip), vehicle: saline 112 % of control | dose: 512.0 mg/kg/injection, schedule: Q01DX009 (ip), vehicle: saline 88 % of control

O=C1CC2C=CCC12 (stereo not drawn)
inactive: [7] 107 % of control | dose: 200.0 mg/kg/injection, schedule: Q01DX009 (ip), vehicle: saline with Tween-80 100 % of control | dose: 400.0 mg/kg/injection, schedule: Q01DX009 (ip), vehicle: saline with Tween-80 91 % of control

N=C(N)NC(=N)Nc1ccc(NC(=O)Nc2ccc(Nc3c4ccccc4nc4cc([N+](=O)[O-])ccc34)cc2)cc1
inactive: dose: 0.8 mg/kg/injection, schedule: Q01DX009 (ip), vehicle: water 98 % of control | dose: 1.6 mg/kg/injection, schedule: Q01DX009 (ip), vehicle: water 100 % of control | dose: 3.13 mg/kg/injection, schedule: Q01DX009 (ip), vehicle: water 102 % of control | [8] 104 % of control | [9] 94 % of control

CC(=O)[O][Sn]([CH2]c1ccccc1)([CH2]c1ccccc1)[CH2]c1ccccc1
inactive: dose: 1.5 mg/kg/injection, schedule: Q01DX009 (ip), vehicle: other 101 % of control | dose: 3.0 mg/kg/injection, schedule: Q01DX009 (ip), vehicle: other 96 % of control | dose: 6.0 mg/kg/injection, schedule: Q01DX009 (ip), vehicle: other 103 % of control | dose: 6.25 mg/kg/injection, schedule: Q01DX009 (ip), vehicle: other 111 % of control

O=C(NC(CSC(=O)OCc1ccccc1)C(=O)Oc1ccc([N+](=O)[O-])cc1)OCc1ccccc1 (stereo not drawn)
inactive: [2] 105 % of control | [4] 100 % of control

Nc1ccc2nc3ccc(N)cc3[n+](-c3ccccc3)c2c1
inactive: dose: 3.75 mg/kg/injection, schedule: Q01DX009 (ip), vehicle: saline with Tween-80 97 % of control | dose: 7.5 mg/kg/injection, schedule: Q01DX009 (ip), vehicle: saline with Tween-80 102 % of control | dose: 10.0 mg/kg/injection, schedule: Q04DX003 (ip), vehicle: saline with Tween-80 100 % of control | dose: 15.0 mg/kg/injection, schedule: Q01DX009 (ip), vehicle: saline with Tween-80 102 % of control | dose: 20.0 mg/kg/injection, schedule: Q04DX003 (ip), vehicle: saline with Tween-80 107 % of control | dose: 30.0 mg/kg/injection, schedule: Q01DX009 (ip), vehicle: saline with Tween-80 118 % of control | dose: 40.0 mg/kg/injection, schedule: Q04DX003 (ip), vehicle: saline with Tween-80 100 % of control

COC1C(O)CC(OC2C(C)OC(Oc3cc(O)c4c(O)c5c(cc4c3)C[C@@H]([C@H](OC)C(=O)[C@@H](O)[C@@H](C)O)[C@H](OC3CC(OC4CC(OC6CC(C)(O)C(O)C(C)O6)C(O)C(C)O4)C(O)C(C)O3)C5=O)CC2OC(C)=O)OC1C (stereo partly drawn)
inactive: dose: 37.5 mg/kg/injection, schedule: Q01DX009 (ip), vehicle: saline 110 % of control | dose: 75.0 mg/kg/injection, schedule: Q01DX009 (ip), vehicle: saline 113 % of control | dose: 150.0 mg/kg/injection, schedule: Q01DX009 (ip), vehicle: saline 111 % of control

O=C1NC(=O)c2ccccc21
inactive: [10] 97 % of control | [11] 95 % of control

NCC(=O)NCC(=O)NC(Cc1ccccc1)C(=O)O (stereo not drawn) (H-Gly-Gly-[ξF]-OH)
inactive: [12] 90 % of control | dose: 100.0 mg/kg/injection, schedule: Q04DX003 (ip), vehicle: saline 92 % of control | [10] 90 % of control | dose: 200.0 mg/kg/injection, schedule: Q04DX003 (ip), vehicle: saline 97 % of control | [11] 93 % of control | dose: 400.0 mg/kg/injection, schedule: Q04DX003 (ip), vehicle: saline 90 % of control

O=C(O)c1cccnc1
inactive: [6] 112 % of control | [1] 105 % of control | [2] 97 % of control | [3] 100 % of control

[Cl][Pt+2][Cl].[NH-]c1ccc(Cl)cc1[NH-]
inactive: dose: 2.5 mg/kg/injection, schedule: Q01DX009 (ip), vehicle: saline with Tween-80 108 % of control | dose: 40.0 mg/kg/injection, schedule: Q01DX009 (ip), vehicle: saline with Tween-80 123 % of control
active: dose: 20.0 mg/kg/injection, schedule: Q01DX009 (ip), vehicle: saline with Tween-80 153 % of control

CCC(C#N)=C1CCCCC1
inactive: [13] 102 % of control | dose: 50.0 mg/kg/injection, schedule: Q01DX009 (ip), vehicle: saline with Tween-80 106 % of control | [7] 114 % of control

O=[N+]([O-])c1ccc([I+]c2ccccc2)cc1
inactive: [6] 115 % of control | dose: 12.5 mg/kg/injection, schedule: Q01DX009 (ip), vehicle: saline with Tween-80 113 % of control | [1] 118 % of control | [13] 112 % of control

c1ccc2c[n+](CCCCCCCCCC[n+]3ccc4ccccc4c3)ccc2c1
inactive: dose: 2.5 mg/kg/injection, schedule: Q01DX009 (ip), vehicle: saline 88 % of control | dose: 5.0 mg/kg/injection, schedule: Q01DX009 (ip), vehicle: saline 97 % of control | dose: 10.0 mg/kg/injection, schedule: Q01DX009 (ip), vehicle: saline 97 % of control | dose: 10.0 mg/kg/injection, schedule: Q04DX003 (ip), vehicle: saline 92 % of control

[Cl][Pt+2][Cl].[NH-]CC1(C[NH-])CCCC1
active: dose: 2.0 mg/kg/injection, schedule: Q01DX009 (ip), vehicle: saline 157 % of control
inactive: dose: 0.5 mg/kg/injection, schedule: Q01DX009 (ip), vehicle: saline 124 % of control | dose: 1.0 mg/kg/injection, schedule: Q01DX009 (ip), vehicle: saline 112 % of control

COc1cc2c(c(OC)c1OC)-c1ccc(SC)c(=O)cc1[C@@H](NC1OC(CO)C(O)C(O)C1O)CC2 (stereo partly drawn)
inactive: [12] 120 % of control

CC1(O)C=CC(=O)C=C1
inactive: [8] 110 % of control | [9] 116 % of control | dose: 25.0 mg/kg/injection, schedule: Q01DX009 (ip), vehicle: water 120 % of control | dose: 50.0 mg/kg/injection, schedule: Q01DX009 (ip), vehicle: water 114 % of control
